{
  "source": "patent US12491249B2",
  "about": "“Methods for manufacturing phthalocyanine dye conjugates and stable conjugates” (Rakuten Medical, Inc., priority 2015, dated 2025)",
  "key": {"[1]": {"settings": "cited from earlier work"}, "[2]": {"system": "A431 cells", "experiment": "EGF-IR700 light-dependent killing", "format": "cell-based", "settings": "for light-dependent killing after conjugate pre-exposure: 1 μg/mL", "experimental": "To assess if EGF-IR700 cell killing was assessed in A431 cells. A431 cells were seeded at 5000 cells per well in 96 well white clear bottom dishes one day prior to the experiment. The following day, the A431 cells were washed three times with EMEM supplemented with 1% Penicillin/Streptomycin (serum free media). The A431 cells were then washed one time with serum free media, then incubated with serum free media containing 1 sg/mL of EGF-IRDye 700DX for one hour at 4° C. or serum free media only. As a control to assess the specificity of the activity, in one condition A431 cells were pre-incubated with 100 sg/mL unconjugated cetuximab diluted in serum free media for one hour at 4° C. prior to incubation with 1 sg/mL of EGF-IRDye 700DX. The cells were then washed one time with serum free media.\nTo induce IR700-dependent killing, the cells were then illuminated with a 690 nm laser with 32 J/cm^2 of light or protected from light (“no light”). Cell death was evaluated as described in Example 9 using CellTox Green. The normalized percentage of dead cells was calculated by subtracting all wells by the percentage of dead cells from the no light serum free media only control, dividing by EGF-IRDye 700DX at 32 J/cm^2 minus the no light serum-free media only control, and multiplied 100.\nThe effect of EGF-IRDye 700DX pre-exposure to white light versus green light on photo-activated cell killing was also evaluated in A431 cells. EGF-IRDye 700DX was pre-exposed to different types of light and the effect of light treatment on photo-activated killing activity was evaluated. Five microliters of EGF-IRDye 700DX conjugate (DAR 2) was added per clear HPLC vial at a EGF-IRDye 700DX concentration of 1.14 mg/mL. The following conditions were tested: (1) the antibody-IRDye 700DX conjugate stored at 4° C. protected from light (“4° C.”, used as the control); (2). antibody-IRDye 700DX conjugate placed in a clear glass HPLC tube under a Halogen lamp at 2500 lux for 24 hrs (“white light”); (3) antibody-IRDye 700DX conjugate placed in a clear glass HPLC tube wrapped in aluminum foil to protect from light exposure under Halogen lamp at 2500 lux for 24 hrs (“no light”, used as a control for thermal heating effects on the formation of aggregates); and (4) antibody-IRDye 700DX conjugate placed in a clear glass HPLC tube and exposed to green LED lamp at 2500 lux for 24 hrs (“green light”).\nTo assess cell killing activity, A431 cells were washed two times with serum free media, and incubated in serum free media alone for one hour at 4° C. The cells were then washed one time with serum free media and incubated with serum free media alone or serum free media containing 1 μg/mL of EGF-IRDye 700DX (“no light”), serum free media containing 1 μg/mL of EGF-IRDye 700DX pre-exposed to white light (“2500 Lux White light”), or serum free media containing 1 μg/mL EGF-IRDye 700DX pre-exposed to green light for one hour at 4° C. (“2500 Lux Green light”). The cells were then washed one time with serum free media.\nTo induce cell killing, the cells were either protected from light (light dose 0 J/cm^2) or were illuminated with a 690 nm laser with different light dosimetries (8 J/cm^2, 32 J/cm^2 or 64 J/cm)."}},
  "note": "Read-outs that look alike come from different tables or passages of the source.",
  "data": [
    {"compound": "Photofrin", "values": [
      {"measurement": "extinction coefficient", "setting": "[1]; at 630 nm", "result": 1200, "unit": "M⁻¹ cm⁻¹"}
    ]},
    {"compound": "EGF-IRDye 700DX: Human recombinant epidermal growth factor (EGF) conjugated to IRDye 700DX", "values": [
      {"measurement": "cell killing", "setting": "[2]; 1 sg/mL, 690 nm 32 J/cm^2 or no light", "result": "light-dependent killing"},
      {"measurement": "cell killing after receptor blocking", "setting": "[2]; cells pre-exposed to 100 sg/mL unconjugated cetuximab, 1 sg/mL conjugate", "result": "blocked light-dependent cell killing"},
      {"measurement": "light-dependent killing after conjugate pre-exposure", "setting": "[2]; green light, green LED lamp 2500 lux 24 hours", "result": "comparable to that of the “no light” EGF-IRDye 700DX"},
      {"measurement": "light-dependent killing after conjugate pre-exposure", "setting": "[2]; protected from light, thermal heating under halogen lamp 2500 lux 24 hours", "result": "exhibited light-dependent killing"},
      {"measurement": "light-dependent killing after conjugate pre-exposure", "setting": "[2]; white light, halogen lamp 2500 lux 24 hours", "result": "no longer exhibited light-dependent killing activity"}
    ]},
    {"compound": "C=Cc1c(C)c2cc3nc(c(CC(=O)N[C@@H](CC(=O)[O-])C(=O)[O-])c4[nH]c(cc5nc(cc1[nH]2)C(C)=C5CC)c(C)c4C(=O)[O-])[C@@H](CCC(=O)[O-])[C@@H]3C.[Na+].[Na+].[Na+].[Na+]", "note": "[NPe6/Laserphyrin, mono-L-aspartylchlorin e6]", "values": [
      {"measurement": "extinction coefficient", "setting": "[1]; at 654 nm", "result": 40000, "unit": "M⁻¹ cm⁻¹"}
    ]}
  ]
}
